Source: the NIST ThermoML archive (doi:10.1021/je900077g)

Assay: excess molar enthalpy (molar enthalpy of mixing); xn = mol fraction of the nth substance listed
Details: 308.15 K, 101 kPa, Liquid, Calvet calorimetry

C1COCCO1 [1,4-dioxane] + C1CCCCC1
Details | excess molar enthalpy [kJ/mol]
x2 = 0.101 | 0.57
x2 = 0.204 | 1.05
x2 = 0.288 | 1.33
x2 = 0.408 | 1.56
x2 = 0.506 | 1.62
x2 = 0.606 | 1.57
x2 = 0.705 | 1.44
x2 = 0.803 | 1.15
x2 = 0.9 | 0.695

C1CCOCC1 [tetrahydropyran] + C1CCCCC1
Details | excess molar enthalpy [kJ/mol]
x2 = 0.101 | 0.157
x2 = 0.2 | 0.294
x2 = 0.3 | 0.412
x2 = 0.4 | 0.49
x2 = 0.499 | 0.526
x2 = 0.606 | 0.519
x2 = 0.699 | 0.461
x2 = 0.8 | 0.355
x2 = 0.9 | 0.198

C1CCOCC1 [tetrahydropyran] + C1COCCO1
Details | excess molar enthalpy [kJ/mol]
x1 = 0.104 | 0.149
x1 = 0.201 | 0.249
x1 = 0.299 | 0.315
x1 = 0.398 | 0.352
x1 = 0.497 | 0.361
x1 = 0.612 | 0.342
x1 = 0.716 | 0.296
x1 = 0.8 | 0.235
x1 = 0.9 | 0.135
